Converted amounts (≈) assume the structure as drawn. Where two headings read alike, the source gives them in different places.
Columns and labels:
[1] = tested on: Human alveolar epithelial cells (A549); assay: Resazurin cytotoxicity assay, A549
Description: (§1) To identify marine samples with activity against MRSA, 1434 compounds from the AIMS Bioresources Library (provided by the Queensland Compound Library, Brisbane, Australia, now called Compounds Australia) were screened in a resazurin cell viability assay.
(§2) Toxicity of AIMS Extract Library. Human alveolar epithelial cells (A549), Madin-Darby canine kidney epithelial cells (MDCK), human leukaemia cells (THP-1), human hepatocellular carcinoma cells (Hep-G2) and human embryonic kidney cells 293 (HEK293) were grown and differentiated in complete RPMI (Roswell Park Memorial Institute Medium) and DMEM (Dulbecco’s Modified Eagle’s medium) tissue culture media (RPMIc and DMEMc, from the Thermo Fisher Scientific, Waltham, MA, USA) by adding 10% FBS, 200 µM L-glutamine and 1 mM HEPES buffer solution. To determine toxicity of the AIMS extract library, 2 × 10^5 of each cell type were added to a 96-well plate and left for 48 h in a humidified 5% CO2 incubator at 37 °C to adhere. Extract samples at a final concentration of 0.5 mg mL^−1 were added to the wells, then the plates incubated for 4 more days in a humidified 5% CO2 incubator at 37 °C. Then, resazurin (10 μL of 0.05% w/v) was added and after 4 h, fluorescence measured as described previously. The cell viability was calculated as percentage fluorescence relative to untreated cells.

P. aeruginosa PAO1 = assay: Resazurin bacterial inhibition assay (MIC), P. aeruginosa; type: cell-based; details: Pseudomonas aeruginosa, read-out: Minimum Inhibitory Concentration P. aeruginosa
[2] = tested on: human leukaemia cells (THP-1); assay: Resazurin cytotoxicity assay, THP-1
Description: as §1
as §2, with “Extract samples at a final concentration of 0.5 mg mL^−1 were added to the wells, then the plates incubated for 4 more days in a humidified 5% CO2 incubator at 37 °C.” left out

[3] = tested on: methicillin-resistant Staphylococcus aureus (MRSA); assay: Resazurin bacterial inhibition assay (MIC), MRSA; type: cell-based; details: Staphylococcus aureus, MRSA, 18 h, read-out: Minimum Inhibitory Concentration MRSA
[4] = tested on: human embryonic kidney cells 293 (HEK293); assay: Resazurin cytotoxicity assay, HEK 293
Description: as §1, §2

M. tuberculosis H37Rv = assay: Resazurin bacterial inhibition assay (MIC), M. tuberculosis; type: cell-based; details: Mycobacterium tuberculosis, 168 h, commercial compounds, 7 days, read-out: Minimum Inhibitory Concentration M. tuberculosis H37Rv
E. coli EC958 = assay: Resazurin bacterial inhibition assay (MIC), E. coli; type: cell-based; details: Escherichia coli, read-out: Minimum Inhibitory Concentration E. coli
[5] = tested on: human hepatocellular carcinoma cells (Hep-G2); assay: Resazurin cytotoxicity assay, HepG2
Description: as §1, §2

[6] = PAO1, commercial compounds, 18 h, resazurin
[7] = commercial compounds, resazurin
[8] = EC958, commercial compounds, 18 h, resazurin
[9] = commercial compounds, unit from Table 8 head

SMILES	Minimum Toxicity Concentration A549 ([1]; human, 4 days) [µM]	MIC (P. aeruginosa PAO1; [6]) [µM]	Minimum Toxicity Concentration THP-1 ([2]; human, 4 days) [µM]	MIC [3, 7] [µM]	Minimum Toxicity Concentration HEK 293 ([4]; human, 4 days) [µM]	MIC (M. tuberculosis H37Rv) [µM]	MIC (E. coli EC958; [8]) [µM]	Minimum Toxicity Concentration HepG2 ([5]; human, 4 days) [µM]	Minimum Toxicity Concentration A549 [1, 9] [µM]	Minimum Toxicity Concentration THP-1 [2, 9] [µM]	Minimum Toxicity Concentration HEK 293 [4, 9] [µM]	Minimum Toxicity Concentration HepG2 [5, 9] [µM]	MIC (P. aeruginosa PAO1; PAO1, 18 h) [µM]	MIC [3] [µM]	MIC (E. coli EC958; EC958, 18 h) [µM]
NCc1ccccc1 [Benzylamine]	>100	> 100	>100	> 100	>100	> 100	> 100	>100							
c1ccc(CNCc2ccccc2)cc1 [Dibenzylamine]	>100	12.5 (≈ 2.47 µg/mL)	>100	> 100	>100	> 100	> 100	>100							
C1CCC(NC2CCCCC2)CC1 [Dicyclohexylamine]		12.5 (≈ 2.27 µg/mL)		> 100		> 100	> 100		>100	>100	>100	>100			
CCCCCCCCNCCCCCCCC [Dioctylamine]		3 (≈ 0.724 µg/mL)		6.2 (≈ 1.5 µg/mL)		> 100	6.2 (≈ 1.5 µg/mL)		>100	>100	>100	>100			
c1ccc2cnccc2c1 [Isoquinoline]		> 100		> 100		0.1 (≈ 0.0129 µg/mL)	> 100	3							
Cc1ccc2ccc3ccc(C)nc3c2n1 [Neocuproine hemihydrate]		0.04		0.09		0.1	0.3		6.2	12	0.1	0.1			
c1ccc2ncccc2c1 [Quinoline]	50	> 100		> 100		0.1 (≈ 0.0129 µg/mL)	> 100	3							
c1ccc(CN(Cc2ccccc2)Cc2ccccc2)cc1 [Tribenzylamine]		6.5 (≈ 1.87 µg/mL)		> 100		> 100	> 100		>100	>100	>100	>100			
CCCCN(CCCC)CCCC [Tributylamine]						> 100			>100	>100	>100	>100	50 (≈ 9.27 µg/mL)	> 100	> 100
CCN(CC)CC [Triethylamine]	>100	> 100	>100	> 100	>100	> 100	> 100	>100							
CCCCCCCCN(CCCCCCCC)CCCCCCCC [Trioctylamine]		25 (≈ 8.84 µg/mL)		12.5 (≈ 4.42 µg/mL)		0.02 (≈ 0.00707 µg/mL)	25 (≈ 8.84 µg/mL)		50	3.1	6	>100			

Reference: publication PMC8004798, “Identification of Bioactive Compounds from Marine Natural Products and Exploration of Structure-Activity Relationships (SAR)” (Antibiotics, 2021)
